Test results taken from US11034654B2, “2,3-dihydroisoindole-1-carboxamides useful as ROR-gamma modulators” (AstraZeneca AB, priority 2017, dated 2021).

What was measured:
human TH17 cells = test: Inhibition of IL-17 release from human TH17 cells; format: cell-based; details: 96 h; isolated human TH17 cells cultured 4 days, IL-17A in supernatant by HTRF; read-out: pIC50 IL-17 release (converted)
Text: Inhibition of IL-17 Release from Human TH17 Cells
This test is designed to screen compounds for their inhibitory effect on the release of IL-17 from isolated and cultured human TH17 cells.
Peripheral blood mononuclear cells (PBMC) were isolated from heparin treated human whole blood from healthy donors by density gradient centrifugation. TH17 cells (CD4+CXCR3−CCR6+) were enriched using a human TH17 Cell Enrichment Kit (Stemcell Technologies) according to the manufacturer's protocol. The isolated TH17 cells were activated with aCD3aCD28 beads (MACS Miltenyi) and cultured in X-Vivo15 medium (Lonza) supplemented with L-glutamine, β-mercaptoethanol and a cytokine cocktail consisting of; IL-2, IL-23, IL-1β, IL-6, TGF-β. Cells were seeded at 8000 cells/well in a 384-plate (Corning, #3707) in the presence of compounds or DMSO and cultured for 4 days (37° C., 5% CO2). On day 4 supernatants were collected and IL-17A was measured using a Human IL-17 HTRF Assay kit (Cisbio Bioassays) according to the manufacturer's protocol. The IC50 values for the tested compounds was calculated using Genedata Screener® software (Genedata) using the following calculation method; Compound % effect=100*[(X−min)/(max−min)], where X represents the normalized value for the compound based on the Min (DMSO) and Max (compound 3-(1,3-benzodioxol-5-yl)-1-(3,5-dimethylpiperidin-1-yl)-3-(2-hydroxy-4,6-dimethoxyphenyl)propan-1-one at 10 μM, described in J. R. Hu et al. ACS Med. Chem. Lett. 2013, 4, 79-84) inhibition controls. Results

[1] = target: T1, RORγ ligand binding domain (Homo sapiens, UniProt P51449); test: RORγ radioligand competition binding assay (SPA); details: competition with tritiated 2-(4-(ethylsulfonyl)phenyl)-N-(4-(2-(methoxymethyl)phenyl)thiophen-2-yl)acetamide (25 nM), hRORγ LBD
Outline: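 SPA competition on E. coli-expressed N-6×HN-Avi-GST-TCS-hRORγ LBD (S258-K518), 4 nM on YOx glutathione beads, in 20 mM Tris, 150 mM NaCl, 10% glycerol, 0.25% CHAPS, 1 mM TCEP. Compound pre-incubation 1 h RT, then 25 nM tritiated tracer for 16 h. IC50 normalized to vehicle/reference controls; Ki = IC50/(1+[L]/Kd), Kd 17 nmol/L.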

[2] = target: T1, RORγ ligand binding domain; test: RORγ co-factor recruitment assay (FRET); format: biochemical; set-up: made in house; host or cells: E. coli BL21DE3 Star; details: inhibition of recruitment of SRC-1 peptide (NCOA1_677-700) to hRORγ LBD, HTRF read-out
Outline: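 Inverse-agonist TR-FRET measuring biotinylated SRC-1 peptide (NCOA1 677-700, 160 nM in pre-mix) recruitment to E. coli-expressed biotinylated HN-Avi-MBP-TCS-hRORγ LBD (258-518; 100 nM in pre-mix), with Eu-streptavidin and streptavidin-APC, in MOPS pH 7.4 buffer, 1 h at rt. 665/612 nm ratio normalised to vehicle and reference control; IC50 from curve fit.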

SMILES | IC50 (human TH17 cells) [nM] | IC50 [1] [nM] | IC50 [2] [nM]
CC(=O)N1Cc2cc(S(C)(=O)=O)ccc2C1C(=O)Nc1ccc(C(NCCCS(C)(=O)=O)(C(F)(F)F)C(F)(F)F)cc1 (stereo not drawn) [Example 22, 2-Acetyl-N-[4-(1,1,1,3,3,3-hexafluoro-2-{[3-(methylsulfonyl)propyl]amino}propan-2-yl)phenyl]-5-(methylsulfonyl)-2,3-dihydro-1H-isoindole-1-carboxamide] | 794 | 1000 | 1000
COC(=O)CC(c1ccc(NC(=O)C2c3ccc(S(C)(=O)=O)cc3CN2C(C)=O)cc1)(C(F)(F)F)C(F)(F)F (stereo not drawn) [Example 32, Methyl 3-[4-({[2-acetyl-5-(methylsulfonyl)-2,3-dihydro-1H-isoindol-1-yl]carbonyl}amino)phenyl]-4,4,4-trifluoro-3-(trifluoromethyl)butanoate] | 15.8 | 25.1 | 50.1
CC(=O)N1Cc2cc(S(C)(=O)=O)ccc2C1C(=O)Nc1ccc(C(NC2COC2)(C(F)(F)F)C(F)(F)F)cc1 (stereo not drawn) [Example 19, 2-Acetyl-N-{4-[1,1,1,3,3,3-hexafluoro-2-(oxetan-3-ylamino)propan-2-yl]phenyl}-5-(methylsulfonyl)-2,3-dihydro-1H-isoindole-1-carboxamide] | 50.1 | 126 | 100
CC(=O)N1Cc2cc(S(C)(=O)=O)ccc2C1C(=O)Nc1ccc(C(NCCO)(C(F)(F)F)C(F)(F)F)cc1 (stereo not drawn) [Example 21, 2-Acetyl-N-(4-{1,1,1,3,3,3-hexafluoro-2-[(2-hydroxyethyl)amino]propan-2-yl}phenyl)-5-(methylsulfonyl)-2,3-dihydro-1H-isoindole-1-carboxamide] | 100 | 316 | 126
CC(=O)N1Cc2cc(S(C)(=O)=O)ccc2C1C(=O)Nc1ccc(C(CC(=O)NC2CC2)(C(F)(F)F)C(F)(F)F)cc1 (stereo not drawn) [Example 38, 2-Acetyl-N-{4-[4-(cyclopropylamino)-1,1,1-trifluoro-4-oxo-2-(trifluoromethyl)butan-2-yl]phenyl}-5-(methylsulfonyl)-2,3-dihydro-1H-isoindole-1-carboxamide] | 1000 | 794 | 631

Now those with a lower IC50 [1], led by results:

IC50 (human TH17 cells) [nM] | IC50 [1] [nM] | IC50 [2] [nM] | SMILES
25.1 | 15.8 | 100 | CCOC(=O)CC(c1ccc(NC(=O)C2c3ccc(S(C)(=O)=O)cc3CN2C(C)=O)cc1)(C(F)(F)F)C(F)(F)F (stereo not drawn) [Example 37, Ethyl 3-[4-({[2-acetyl-5-(methylsulfonyl)-2,3-dihydro-1H-isoindol-1-yl]carbonyl}amino)phenyl]-4,4,4-trifluoro-3-(trifluoromethyl)butanoate]
10 | 12.6 | 50.1 | CS(=O)(=O)c1ccc2c(c1)CN(C(=O)CO)C2C(=O)Nc1ccc(C(C#N)(C(F)(F)F)C(F)(F)F)cc1 (stereo not drawn) [Example 5, N-[4-(2-Cyano-1,1,1,3,3,3-hexafluoropropan-2-yl)phenyl]-2-(hydroxyacetyl)-5-(methylsulfonyl)-2,3-dihydro-1H-isoindole-1-carboxamide]
2.51 | 5.01 | 39.8 | CCS(=O)(=O)c1ccc2c(c1)CN(C(C)=O)C2C(=O)Nc1ccc(C(C#N)(C(F)(F)F)C(F)(F)F)cc1 (stereo not drawn) [Example 14, 2-Acetyl-N-[4-(2-cyano-1,1,1,3,3,3-hexafluoropropan-2-yl)phenyl]-5-(ethylsulfonyl)-2,3-dihydro-1H-isoindole-1-carboxamide]
